These are literature values, as cited in paper PMC3290704 (Journal of the American Chemical Society, 2012).

One data set concerns TAZ2 from p300. The note with it: NMR structure of complex.
Another data set deals with TAZ2. The note with it: fluorescence titrations.

As for “p53(2–39): p53(2–39) peptide in NMR structure with TAZ2 from p300”, in the data set with TAZ2 from p300, the “TAZ2 residues in direct hydrophobic contact with p53” value was “Val1802, Leu1823, and Leu1826 of TAZ2 have direct hydrophobic contacts with p53”; the “p53 residues forming an α-helix upon binding” value is reported as “residues 17 ~ 24 of the p53 AD1 subdomain form an α-helix upon binding”. One may read the Kd as the constant that tells how readily two partners part at equilibrium. Turning to “p53(13–61): p53(13–61), literature TAZ2 binder by fluorescence titration”, the Kd on TAZ2 is 0.01 to 0.02 µM.
